Source: PMC4743981, “Immunomodulatory and Anti-Inflammatory Activities of Chicken Cathelicidin-2 Derived Peptides” (PLoS ONE, 2016)
Read-outs that look alike come from different tables or passages of the source. Ends that are not written are not given here.

Experiments:
S. minnesota LPS = test: LPS binding affinity, dansyl-polymyxin B displacement; parameters: species or system Salmonella minnesota; conditions: concentration of peptide needed to displace 50% of Dansyl-labeled polymyxin from S. minnesota LPS micelles, unsubstituted (Phe) peptide, read-out: I50 (Phe)
Description: Dansyl-polymyxin B was prepared and quantitated as described by Schindler and Teuber. Subsequently, the capacity of peptides to displace dansyl-labeled polymyxin B complexed to S. minnesota LPS was determined according to Moore et al..

CXCLi2/IL-8 = test: Peptide-induced CXCLi2 transcription in HD11 cells (real time PCR); type: cell-based, chicken; conditions: 1 to 20 μM peptide, 4 h or 24 h, real time QPCR
Description: (§1) HD11 cells were a kind gift of dr. Jos van Putten (department of Infectious diseases and Immunology, Utrecht University, The Netherlands). HD11 cells were seeded in 96 wells tissue culture treated plates (1×10^5 cell/mL) and incubated for 18 h at 37°C (5% CO2) before treatment. For peptide-induced effects cells were treated with RPMI-1640 medium containing 20 μM peptide during 4 h or 24 h. In LPS neutralization experiments, final concentrations of 50–100 ng/ml LPS were pre-incubated with or without 20 μM peptide for 30 min at 37°C (5% CO2), applied to the cells and incubated for 4 h. To examine neutralization of LPS-primed cells HD11 cells were exposed for 30 min to 100–1000 ng/ml S. minnesota LPS, washed once and incubated during 4 h in the absence or presence of 20 μM Peptide. Supernatants were collected for the determination of nitric oxide production (24 h incubations only). […] RNA quantity and purity were tested using a Nanodrop ND-1000 spectrophometer (Nanodrop Technologies, Wilmington, DE). Cytotoxicity of peptides was determined using the cell viability reagent WST-1 (Roche) as described previously, and by measuring LDH release after 24 h exposure. LDH activities in supernatant cell fractions were measured using the Cytoxicity Detection Kit PLUS (Roche) according the manufacturers recommendations and expressed as the % of released LDH relative to the total LDH activity. […]

MCP-3 = test: Peptide-induced MCP-3 transcription in HD11 cells (real time PCR); type: cell-based, chicken; conditions: 1 to 20 μM peptide, 4 h or 24 h, real time QPCR
Description: as §1

[1] = system: NO production by HD11 cells; test: Peptide-induced nitric oxide production by HD11 cells (Griess); type: cell-based, chicken; conditions: 24 h exposure to 20 μM peptide without LPS, data not shown
Description: HD11 cells were a kind gift of dr. Jos van Putten (department of Infectious diseases and Immunology, Utrecht University, The Netherlands). HD11 cells were seeded in 96 wells tissue culture treated plates (1×10^5 cell/mL) and incubated for 18 h at 37°C (5% CO2) before treatment. For peptide-induced effects cells were treated with RPMI-1640 medium containing 20 μM peptide during 4 h or 24 h. In LPS neutralization experiments, final concentrations of 50–100 ng/ml LPS were pre-incubated with or without 20 μM peptide for 30 min at 37°C (5% CO2), applied to the cells and incubated for 4 h. […] RNA quantity and purity were tested using a Nanodrop ND-1000 spectrophometer (Nanodrop Technologies, Wilmington, DE). Cytotoxicity of peptides was determined using the cell viability reagent WST-1 (Roche) as described previously, and by measuring LDH release after 24 h exposure. LDH activities in supernatant cell fractions were measured using the Cytoxicity Detection Kit PLUS (Roche) according the manufacturers recommendations and expressed as the % of released LDH relative to the total LDH activity.
Nitric oxide production was assessed as the accumulation of nitrite (NO2^−) in cell supernatants during a 24 h incubation period. Nitrite concentrations were determined using a colorimetric reaction with the Griess reagent using (from 1 to 50 μM) sodium nitrite dissolved in water as standards. […]

[2] = system: IL-1β transcription in LPS-primed HD11 cells; test: Neutralization of IL-1β transcription in LPS-primed HD11 cells; type: cell-based, chicken; conditions: HD11 cells primed 30 min with S. minnesota LPS (100–1000 ng/ml), washed once, 4 h with 20 μM peptide; real time QPCR
Description: as §1

[3] = system: Avian pathogenic Escherichia coli O78; type: cell-based; conditions: Avian pathogenic O78, 3 h
Description: Avian pathogenic Escherichia coli O78 (field isolate, Zoetis, Kalamazoo, MI) was cultured in Mueller-Hinton broth at 37°C. Overnight grown cultures were diluted to a density of 2×10^6 CFU/ml in Mueller-Hinton broth (non cation-adjusted, Oxoid Ltd., Hampshire, UK) and mixed in a 96 wells polypropylene microwell plate at a 1:1 ratio with peptide (final concentration: 1.25 to 40 μM). After 3 h incubation samples were serially diluted in medium, plated on trypton soy agar (Oxoid Ltd., Hampshire, UK) media and counted after 24 h incubation at 37°C.

Row | Compound | MIC [3] [µM] | also measured
1 | CC[C@H](C)[C@H](NC(=O)[C@H](CCCCN)NC(=O)[C@H](CCC(=O)O)NC(=O)[C@H](CCCCN)NC(=O)[C@H](CO)NC(=O)[C@H](CCCCN)NC(=O)[C@H](CCCNC(=N)N)NC(=O)[C@H](Cc1ccccc1)NC(=O)[C@H](Cc1ccccc1)NC(=O)[C@H](CC(=O)O)NC(=O)CNC(=O)[C@H](CC(C)C)NC(=O)[C@@H](N)CC(C)C)C(=O)NCC(=O)N[C@@H](CCCCN)C(=O)N[C@@H](CCC(=O)O)C(=O)N[C@@H](Cc1ccccc1)C(=O)N[C@@H](CCCCN)C(=O)N[C@@H](CCCNC(=N)N)C(=O)N[C@H](C(=O)N[C@H](C(=O)N[C@@H](CCC(N)=O)C(=O)N[C@@H](CCCNC(=N)N)C(=O)N[C@H](C(=O)N[C@@H](CCCCN)C(=O)N[C@@H](CC(=O)O)C(=O)N[C@@H](Cc1ccccc1)C(=O)N[C@@H](CC(C)C)C(=O)N[C@@H](CCCNC(=N)N)C(=O)N[C@@H](CC(N)=O)C(=O)N[C@@H](CC(C)C)C(=O)N[C@H](C(=O)N1CCC[C@H]1C(=O)N[C@@H](CCCNC(=N)N)C(=O)N[C@H](C(=O)N[C@@H](CCC(=O)O)C(=O)N[C@@H](CO)C(=O)O)[C@@H](C)O)C(C)C)[C@@H](C)CC)C(C)C)[C@@H](C)CC [LL37] | – | IC50 (S. minnesota LPS): 0.28 ± 0.04 µM; induction of CXCLi2 transcription (in words) (CXCLi2/IL-8): inducing the transcription; induction of MCP-3 transcription (in words) (MCP-3): inducing the transcription; increase of NO levels [1]: 2 fold; inhibition of IL-1β transcription induced by LPS priming (in words) [2]: strongly inhibited
2 | FLRKIRRFRPKVTITIQ-NH2 [C(5–21)] | 8.3 ± 5.8 | –
3 | IRRFRPKVTITIQ-NH2 [C(9–21)] | 8.3 ± 2.9 | –
4 | KIRRFRPKVTITIQ-NH2 [C(8–21)] | 11.7 ± 7.6 | –
5 | Polymyxin B | – | IC50 (S. minnesota LPS; listed as polymyxin B): 4.19 µM; IC50 (S. minnesota LPS): 3.46 ± 0.17 µM
6 | RFGRFLRKIRRFRPK [C(1–15)] | 16.7 ± 5.8 | –
7 | RFGRFLRKIRRFRPKVTITIQ-NH2 [C(1–21)] | 13.3 ± 5.8 | –
8 | RFGRFLRKIRRFRPKVTITIQGSARF-NH2 [CATH-2] | 5.0 ± 0.0 | –
9 | RFLRKIRRFRPKVTITIQ-NH2 [C(4–21)] | 6.7 ± 2.9 | –
10 | RFRPKVTITIQ-NH2 [C(11–21)] | 8.3 ± 2.9 | –
11 | RKIRRFRPKVTITIQ-NH2 [C(7–21)] | 8.3 ± 2.9 | –
12 | RKIRRWRPKVTITIQ-NH2 [C(7–21)W] | 13.3 ± 5.8 | –
13 | RKIRRYRPKVTITIQ-NH2 [C(7–21)Y] | 11.7 ± 7.6 | –
14 | RRFRPKVTITIQ-NH2 [C(10–21)] | 6.7 ± 2.9 | –
15 | RRWRPKVTITIQ-NH2 [C(10–21)W] | 11.7 ± 7.6 | –
16 | RRYRPKVTITIQ-NH2 [C(10–21)Y] | 16.7 ± 5.8 | –
17 | RWGRWLRKIRRWRPKVTITIQ-NH2 [C(1–21)W3] | 13.3 ± 5.8 | –
18 | RWLRKIRRWRPKVTITIQ-NH2 [C(4–21)W2] | 8.3 ± 2.9 | –
19 | RYGRYLRKIRRYRPKVTITIQ-NH2 [C(1–21)Y3] | 10.0 ± 0.0 | –
20 | RYLRKIRRYRPKVTITIQ-NH2 [C(4–21)Y2] | 10.0 ± 0.0 | –
